Publication PMC12785583, “Coconut Milk-Derived Bioactive Peptides as Multifunctional Agents Against Hyperglycemia, Oxidative Stress, and Glycation: An Integrated Experimental and Computational Study” (International Journal of Molecular Sciences, 2025)
Where two headings read alike, the source gives them in different places. Ends that are not written are not given here.

What was measured:
[1] = tested on: human erythrocytes; assay: hemolytic assay; assay type: cell-based
Protocol: The hemolytic potential of the lead peptides was determined following an established erythrocyte hemolysis protocol. In brief, 15 mL of venous blood was drawn from a healthy individual, centrifuged at 3000 rpm for 10 min, and the plasma was discarded. The residual pellet (RBCs) was washed 3 times with PBS (pH 7.4, 0.1 M), and the resultant pellet was resuspended in PBS in a 1:10 ratio. Subsequently, 0.9 mL of the RBC suspension was incubated with 0.1 mL of peptides at various concentrations, a negative control (100 μL PBS + 900 μL RBC suspension), and a positive control (100 μL of 0.5% Triton-X-100 + 900 μL of RBC suspension), and incubated at 37 °C for 24 h. Post incubation, all tubes were centrifuged at 3000 rpm for 10 min. 0.1 mL of the supernatant was then transferred to 96-well plates, and the absorbance of the supernatant was read at 540 nm. […] The corrected values were calculated as Acontrol=Apos−Aneg and Asample=Atest−Aneg where Apos , Aneg and Atest are the absorbance values of the positive control, negative control, and peptide-treated sample (given concentration), respectively.

[2] = cited from earlier work
[3] = within 24 h at 5 mg/mL; cited from earlier work
[4] = superoxide radical scavenging assay (NBT); conditions: for EC50: read-out: Superoxide Radical Scavenging Assay EC50 (value in bracket) (converted)
Protocol: After 10 min of incubation at 25 °C in the dark, absorbance was recorded at 560 nm. Samples without NBT served as blanks, and ascorbic acid was used as the positive control. The results were expressed as the effective concentration (EC50) values.

[5] = target: T1, α-amylase (Sus scrofa, UniProt P00690); assay: enzyme inhibition kinetics (Lineweaver-Burk), α-amylase; assay type: biochemical, porcine; set-up: Vmax: unit not given here
T1 construct: purchased SRL (Sisco Research Laboratories)
T1 sequence (P00690 16-511): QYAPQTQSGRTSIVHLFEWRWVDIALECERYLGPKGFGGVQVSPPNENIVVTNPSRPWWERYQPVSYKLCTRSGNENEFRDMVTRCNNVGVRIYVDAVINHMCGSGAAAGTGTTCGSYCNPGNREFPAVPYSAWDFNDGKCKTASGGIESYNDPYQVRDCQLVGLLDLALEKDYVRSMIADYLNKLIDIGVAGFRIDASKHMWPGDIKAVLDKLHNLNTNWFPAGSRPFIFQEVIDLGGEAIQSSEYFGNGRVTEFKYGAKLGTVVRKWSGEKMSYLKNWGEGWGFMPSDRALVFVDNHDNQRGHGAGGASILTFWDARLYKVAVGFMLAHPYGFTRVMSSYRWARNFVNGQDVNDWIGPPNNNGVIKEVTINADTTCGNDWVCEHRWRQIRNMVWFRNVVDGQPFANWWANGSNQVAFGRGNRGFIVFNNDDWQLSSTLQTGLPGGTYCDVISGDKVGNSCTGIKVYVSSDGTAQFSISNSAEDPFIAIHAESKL
Text: (§1) Enzyme inhibition by coconut milk peptide 2 was further characterised for α-glucosidase, α-amylase and aldose reductase by steady-state kinetic analysis. […] In this context, v denotes the initial rate of product formation, whereas [S] denotes the concentration of the chromogenic or natural substrate used in each assay. Michaelis explained how v depends on [S] for each condition, as described by the Michaelis–Menten equation (Equation (2)):(2) v=VmaxS/Km+S Lineweaver–Burk double-reciprocal plots (Equation (3)) were then constructed by plotting 1/v versus 1/[S]:(3) 1/v=Km/Vmax·1/S+1/Vmax Michaelis–Menten parameters (Km and Vmax) and apparent inhibition constants (Ki) were obtained from these Lineweaver–Burk plots.

[6] = DPPH radical scavenging assay; conditions: for EC50: read-out: DPPH Radical Scavenging Assay EC50 (value in bracket) (converted)
Protocol: The antioxidant assays of the test compounds were conducted in vitro, following previous studies, using the standard DPPH, ABTS, and superoxide radical scavenging assays. Regarding the DPPH assay, 0.2 mL of the test samples (peptides 1 and 2) at various concentrations was added to 1.2 mL of a 40 μg/mL DPPH solution in methanol. The mixtures were shaken vigorously and incubated in the dark for 20 min, after which the reduction in DPPH absorption was measured at 517 nm. The samples without DPPH and with methanol served as blanks. Ascorbic acid was used as the positive control.

[7] = ABTS radical scavenging assay; conditions: for EC50: read-out: ABTS Radical Scavenging Assay EC50 (value in bracket) (converted)
Protocol: Concerning the ABTS assay, the ABTS^•+ radical cation was generated. Subsequently, 0.05 mL of the test samples (peptides 1 and 2) at various concentrations was mixed with 4.00 mL of ABTS^•+ solution and kept in the dark at room temperature for two h. The absorbance was determined at 734 nm using a UV–Vis Spectrophotometer (UV-1280 Shimadzu, Germany). Ascorbic acid was used as the positive control, and samples without the ABTS radical solution served as blanks. The results were expressed as the effective concentration (EC50) values.

[8] = tested on: α-glucosidase; assay: enzyme inhibition kinetics (Lineweaver-Burk), α-glucosidase; assay type: biochemical, Saccharomyces cerevisiae; set-up: Vmax: unit not given here
Text: as §1

[9] = target: T2, aldose reductase (Homo sapiens, UniProt P15121); assay: enzyme inhibition kinetics (Lineweaver-Burk), aldose reductase; assay type: biochemical; set-up: Vmax: unit not given here
Text: as §1

[10] = target: yeast α-glucosidase; assay: α-glucosidase inhibition assay; assay type: biochemical, Saccharomyces cerevisiae; conditions: for IC50: read-out: α-Glucosidase Inhibition IC50 (value in bracket) (converted)
Protocol: The α-glucosidase inhibition assay was performed following the method described by Huligere et al.. […] In this assay, one unit of activity was defined as the amount of enzyme required to release one µmol of p-nitrophenol from pNPG per minute under the specified experimental conditions. […] The reaction was maintained at 37 °C for an additional 20 min. Enzyme activity was determined by measuring the absorbance of liberated p-nitrophenol at 405 nm using a microplate reader (Spectramax i3, Molecular Devices, LLC, San Jose, CA, USA). […] IC50 values were determined by relating the percentage inhibition of each sample to its concentration.

[11] = target: T3, porcine pancreatic α-amylase (Sus scrofa, UniProt P00690); assay: α-amylase inhibition assay; assay type: biochemical
T3 construct: purchased SRL (Sisco Research Laboratories)
T3 sequence (P00690 16-511): T1 sequence (P00690 16-511)
Protocol: The enzymatic reaction was initiated by adding the starch substrate and allowed to proceed for 15 min. The reaction was then terminated by adding the 3,5-dinitrosalicylic acid (DNSA) reagent, and the mixture was heated to boiling for 5 min. […] IC50 values were obtained from plots of percentage inhibition versus sample concentration.

[12] = target: T2, aldose reductase; assay: aldose reductase inhibition assay; assay type: biochemical
Protocol: The aldose reductase inhibition assay was performed according to the method described by Alharbi et al.. Briefly, a 1 mL reaction mixture comprised 0.87 mL of 100 mM Sodium phosphate buffer (pH 6.2), 0.05 mL of 3 mM NADPH, 0.01 mL of human aldose reductase (recombinant, 0.2 U/mL), with the enzyme’s activity being 0.2 IU/mL, and 0.02 mL of test compounds (designated as peptide 1 and peptide 2) at different concentrations. 0.05 mL of the substrate (DL-glyceraldehyde, five mM) was incubated in the reaction mixture for 3 min at 25 °C. Enzyme activity was determined by measuring the reduction in NADPH absorption at 340 nm over 10 min. […] Aldose reductase inhibitory activity was expressed as the percentage of inhibition.

[13] = methylglyoxal scavenging (Maillard reaction model, DNPH assay)
Protocol: This preliminary assay was conducted to evaluate the methylglyoxal scavenging activity of peptides derived from coconut milk. The Maillard reaction was employed to assess the scavenging potential of peptides against methylglyoxal, using parameters as outlined in previous studies by Risum et al., Zhu et al., and Brings et al., with modifications. The reaction mixture (1 mL) consisted of both peptides at different concentrations, methylglyoxal (0.01 mM), phosphate buffer, and water. It was incubated at two temperatures: room temperature (followed by immediate termination) and 37 °C (for 2 h). Following the incubation time, the reaction was terminated by adding 10 μL of glacial acetic acid. Creatine was used as a positive control. The experiments were performed in triplicate.
The scavenging potential of the peptides against methylglyoxal was determined using the DNPH assay. In brief, 25 μL of the sample was mixed with 975 μL of water and 1000 μL of DNPH reagent. The reaction mixture was shaken well and incubated at 37 °C for 10 min. Following incubation, the reaction was terminated by adding 1000 μL of 1.5 N NaOH, and the absorbance of the yellowish-orange complex was measured at 525 nm using […]: the MGO blank and the Creatine blank. Scavenging efficiency was calculated using Equations (4) and (5).(4) ACORR=Asample−Ablank (5) MGOscavenging=1−Acorr/AMGO,corr·100 where Asample is the absorbance of the reaction mixture containing methylglyoxal and the test compound (peptide or creatine), Ablank is the absorbance of the reagent blank (without methylglyoxal and without test compound), and AMGO,corr is the blank-corrected absorbance of the methylglyoxal blank (AMGO-Ablank). The creatine control was processed in the same way as the peptide samples.

[14] = target: aldose reductase; set-up: method as in doi:10.3390/separations9090262; conditions: cited from earlier work
[15] = target: human aldose reductase; set-up: method as in doi:10.1016/j.fbio.2025.107775; conditions: cited from earlier work
[16] = target: α-glucosidase; set-up: method as in PMID 31139399; conditions: soy protein-derived peptides; cited from earlier work
[17] = mean ± SE, read-out: Ki (apparent inhibition constant) (converted)
[18] = mean ± SD, read-out: α-Amylase Inhibition IC50 (converted)
[19] = read-out: α-Amylase Inhibition IC50 (value in bracket) (converted)
[20] = mean ± SD, read-out: Aldose Reductase Inhibition IC50 (converted)
[21] = read-out: Aldose Reductase Inhibition IC50 (value in bracket) (converted)
[22] = read-out: Methylglyoxal Scavenging EC50 at 37 °C, 2 h (value in bracket), 37 °C, 2 h
[23] = room temperature, immediate termination, read-out: Methylglyoxal Scavenging EC50 at RT (value in bracket) (converted)

Triton-X-100 [reference compound]
Hemolytic Assay (HC50) ([1]; human RBC, 37 °C, 24 h): 105.25 ± 0.17 µg/mL
Hemolytic Assay (HC50) (value in bracket) ([1]; human RBC, 37 °C, 24 h): 162.67 µM
Hemolytic Assay (HC50) ([1]; human RBC, 37 °C, 24 h, listed as Triton X-100): 105.25 µg/mL

LLLRW
superoxide anion radical scavenging EC50 [2]: 430 ± 12 µg/mL

VVFPGCPE [Ginkgo biloba peptide, literature]
methylglyoxal scavenging [3]: up to 66.50%

H-ADVFNPR-OH [Peptide 2, ADVFNPR]
Superoxide Radical Scavenging Assay EC50 [4]: 42.45 ± 0.30 µg/mL
EC50 [4]: 51.9 µM
Hemolytic Assay (HC50) [1]: 231.53 ± 0.14 µg/mL
Hemolytic Assay (HC50) (value in bracket) ([1]; red cells of human, 24 h): 283.08 µM
Vmax ([5]; IC20—33.55 µg): 27.75
Vmax ([5]; IC40—67.10 µg): 26.26
Vmax ([5]; IC60—100.60 µg): 27.50
Mode of inhibition ([5]; from Lineweaver–Burk plot): Competitive
Ki [5, 17]: 1.64 µM
Vmax (essentially constant) ([5]; over IC20–IC60): ~27 µM/min
DPPH Radical Scavenging Assay EC50 [6]: 22.14 ± 0.12 µg/mL
EC50 [6]: 27.1 µM
ABTS Radical Scavenging Assay EC50 [7]: 17.89 ± 0.20 µg/mL
EC50 [7]: 21.9 µM
Vmax ([8]; IC20—13.13 µg): 14.87
Vmax ([8]; IC40—26.26 µg): 14.68
Vmax ([8]; IC60—39.39 µg): 14.50
Mode of inhibition ([8]; from Lineweaver–Burk plot): Competitive
Ki (apparent inhibition constant) ([8]; mean ± SE): 0.95 ± 0.09 µg
Vmax (essentially constant) ([8]; over IC20–IC60): ~15 µM/min
Vmax ([9]; IC20—8.12 µg): 46.64
Vmax ([9]; IC40—16.23 µg): 46.02
Vmax ([9]; IC60—24.35 µg): 45.55
Mode of inhibition ([9]; from Lineweaver–Burk plot): Competitive
Ki [9, 17]: 0.954 µM
Vmax (essentially constant) ([9]; over IC20–IC60): ~46 µM/min
IC50 ([10]; listed as peptide 2): 40.1 µM
α-Glucosidase Inhibition IC50 ([10]; mean ± SD): 32.82 ± 0.17 µg/mL
IC50 [10]: 40.1 µM
IC50 [11, 18]: 103 µM
IC50 [11, 19]: 103 µM
IC50 [12, 20]: 24.8 µM
IC50 [12, 21]: 24.8 µM
Methylglyoxal Scavenging EC50 at 37 °C, 2 h ([13]; 37 °C, 2 h): 182.17 ± 0.23 µg/mL
EC50 [13, 22]: 223 µM
Methylglyoxal Scavenging EC50 at RT ([13]; room temperature, immediate termination): 208.10 ± 0.65 µg/mL
EC50 [13, 23]: 254 µM

CN(CC(=O)O)C(=N)N [Creatine, reference compound]
Methylglyoxal Scavenging EC50 at 37 °C, 2 h ([13]; 37 °C, 2 h): 230.05 ± 0.34 µg/mL
EC50 [13, 22]: 1750 µM
EC50 [13, 23]: 1750 µM

MQIFVK [Peptide 1, MQIFVK]
Hemolytic Assay (HC50) [1]: 220.85 ± 0.20 µg/mL
Hemolytic Assay (HC50) (value in bracket) ([1]; red cells of human, 24 h): 288.70 µM
IC50 [11, 18]: 115 µM
IC50 [11, 19]: 115 µM
IC50 [12, 20]: 29.4 µM
IC50 [12, 21]: 29.4 µM

C[C@@H]1O[C@@H](OC[C@H]2O[C@@H](Oc3c(-c4ccc(O)c(O)c4)oc4cc(O)cc(O)c4c3=O)[C@H](O)[C@@H](O)[C@@H]2O)[C@H](O)[C@H](O)[C@H]1O [rutin]
aldose reductase IC50 [14]: 7.86 ± 0.33 µg/mL

O=C(O)Cn1c(=O)n(Cc2ccc(Br)cc2F)c(=O)c2ccc(Cl)cc21 [zenarestat]
human aldose reductase IC50 [15]: 59.68 ± 0.47 µg/mL

SWLRL
IC50 [16]: 182.1 ± 0.74 µM

WLRL
IC50 [16]: 162.3 ± 0.74 µM

YFYPEL
superoxide scavenging activity [2]: 65.8 µg/mL
EC50 ([2]; read-out: superoxide scavenging activity (value in bracket)): 79.2 µM

O=C1O[C@H]([C@@H](O)CO)C(O)=C1O [Ascorbic acid, reference compound]
Superoxide Radical Scavenging Assay EC50 [4]: 57.71 ± 0.16 µg/mL
EC50 [4]: 328 µM
DPPH Radical Scavenging Assay EC50 [6]: 28.65 ± 0.17 µg/mL
EC50 [6]: 163 µM
ABTS Radical Scavenging Assay EC50 [7]: 22.74 ± 0.27 µg/mL
EC50 [7]: 129 µM

LPLPVLK [soy protein-derived peptide, literature]
IC50 [16]: 237.4 ± 0.52 µM

GDMNP
superoxide anion radical scavenging EC50 [2]: 400 ± 8 µg/mL
